Source: patent US20110098214A1 (priority 2005, published 2011)
One block for each molecule: values may come before it. Square brackets hold non-standard residues; d marks the D form. Ends that are not written are not given here. Peptide text beside a SMILES is read from it.

Columns and labels:
[1] = system: mouse model for endotoxemia; conditions: in vivo
[2] = biological target: T1, human IL-1β (Pepro Tech) (human, UniProt P01584 117-269); experiment: batch adsorption on peptide-immobilized silica beads, in an LPS solution (500 ng/mL LPS) containing IL-1β
T1 construct: Commercial protein added at 200 ng/mL to the LPS solution

Molecule: CC[C@H](C)[C@H](NC(=O)[C@H](CO)NC(=O)[C@H](CO)NC(=O)[C@@H](NC(=O)[C@H](CO)NC(=O)[C@H](CO)NC(=O)[C@H](CO)NC(=O)[C@H](Cc1ccc(O)cc1)NC(=O)[C@H](N)CCCCN)[C@@H](C)CC)C(=O)N[C@@H](CCCNC(=N)N)C(=O)NCC(=O)NCC(=O)N[C@@H](CC(C)C)C(=O)N[C@@H](CC(C)C)C(=O)N[C@@H](CC(C)C)C(=O)N[C@@H](CC(C)C)C(=O)N[C@@H](CC(C)C)C(=O)N[C@@H](CC(C)C)C(=O)N[C@@H](CC(C)C)C(=O)O [Wine Opener, kYSSSISSIRGGLLLLLLL] (H-[dK]YSSSISSIRGGLLLLLLL-OH; N-terminus and C-terminus assumed)
short term toxicity (weight) [1]: no short term toxicity which affected weight

binding result [2]: no binding (tested: 200 ng/mL IL-1β)
B1: peptide Li5 C (peptide)
peptide: KNYSSSISSIHAC
modifications: also: immobilized on silica beads via C-terminal Cys thiol
notes: In the assay it was immobilized on propionyl chloride functionalized silica gel beads
